Laboratory results: PubChem BioAssay (NCI)
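48-hour exposure; five concentrations; linearly interpolated endpoints. TGI: concentration producing complete growth inhibition.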

Tests used:
Assay in all cases: NCI tumour cell line growth inhibition, 48 h
786-0 renal = system: 786-0 renal
A498 renal = system: A498 renal
A549 NSCLC = system: A549 NSCLC
ACHN renal = system: ACHN renal
BT-549 breast = system: BT-549 breast
CAKI-1 renal = system: CAKI-1 renal
CCRF-CEM leukemia = system: CCRF-CEM leukemia
COLO 205 colon = system: COLO 205 colon
DLD-1 colon = system: DLD-1 colon
DMS 114 small cell lung = system: DMS 114 small cell lung
DMS 273 small cell lung = system: DMS 273 small cell lung
DU-145 prostate = system: DU-145 prostate
EKVX NSCLC = system: EKVX NSCLC
HCC-2998 colon = system: HCC-2998 colon
HCT-116 colon = system: HCT-116 colon
HCT-15 colon = system: HCT-15 colon
HL-60(TB) leukemia = system: HL-60(TB) leukemia
HOP-18 NSCLC = system: HOP-18 NSCLC
HOP-62 NSCLC = system: HOP-62 NSCLC
HOP-92 NSCLC = system: HOP-92 NSCLC
HS 578T breast = system: HS 578T breast
HT29 colon = system: HT29 colon
IGROV1 ovarian = system: IGROV1 ovarian
K-562 leukemia = system: K-562 leukemia
KM12 colon = system: KM12 colon
KM20L2 colon = system: KM20L2 colon
LOX IMVI melanoma = system: LOX IMVI melanoma
LXFL 529 NSCLC = system: LXFL 529 NSCLC
M14 melanoma = system: M14 melanoma
M19-MEL melanoma = system: M19-MEL melanoma
MALME-3M melanoma = system: MALME-3M melanoma
MCF7 breast = system: MCF7 breast
MDA-MB-231 breast = system: MDA-MB-231 breast
MDA-MB-435 = system: MDA-MB-435
MDA-N = system: MDA-N
MOLT-4 leukemia = system: MOLT-4 leukemia
NCI-H226 lung = system: NCI-H226 lung
NCI-H23 lung = system: NCI-H23 lung
NCI-H460 lung = system: NCI-H460 lung
NCI-H522 lung = system: NCI-H522 lung
NCI/ADR-RES ovarian = system: NCI/ADR-RES ovarian
OVCAR-3 ovarian = system: OVCAR-3 ovarian
OVCAR-4 ovarian = system: OVCAR-4 ovarian
OVCAR-5 ovarian = system: OVCAR-5 ovarian
OVCAR-8 ovarian = system: OVCAR-8 ovarian
PC-3 prostate = system: PC-3 prostate
RPMI-8226 leukemia = system: RPMI-8226 leukemia
RXF 393 renal = system: RXF 393 renal
RXF-631 renal = system: RXF-631 renal
SF-268 CNS = system: SF-268 CNS
SF-295 CNS = system: SF-295 CNS
SF-539 CNS = system: SF-539 CNS
SK-MEL-2 melanoma = system: SK-MEL-2 melanoma
SK-MEL-28 melanoma = system: SK-MEL-28 melanoma
SK-MEL-5 melanoma = system: SK-MEL-5 melanoma
SK-OV-3 ovarian = system: SK-OV-3 ovarian
SN12C renal = system: SN12C renal
SNB-19 CNS = system: SNB-19 CNS
SNB-75 CNS = system: SNB-75 CNS
SNB-78 CNS = system: SNB-78 CNS
SR leukemia = system: SR leukemia
SW-620 colon = system: SW-620 colon
T-47D breast = system: T-47D breast
TK-10 renal = system: TK-10 renal
U251 CNS = system: U251 CNS
UACC-257 melanoma = system: UACC-257 melanoma
UACC-62 melanoma = system: UACC-62 melanoma
UO-31 renal = system: UO-31 renal
XF 498 CNS = system: XF 498 CNS

SMILES: Cc1ccccc1C1=C/C(=C(\SS/C(C(=O)c2ccc(OCC(=O)O)c(Cl)c2Cl)=C2\C=C(c3ccccc3C)SS2)C(=O)c2ccc(OCC(=O)O)c(Cl)c2Cl)SS1
- TGI (786-0 renal): > 70 µM
- TGI (A498 renal): 92.6 µM
- TGI (A549 NSCLC): > 94.2 µM
- TGI (ACHN renal): 65.4 µM
- TGI (BT-549 breast): > 74.1 µM
- TGI (CAKI-1 renal): 72.9 µM
- TGI (CCRF-CEM leukemia): 32.2 µM
- TGI (COLO 205 colon): 47.5 µM
- TGI (DLD-1 colon): > 67.2 µM
- TGI (DMS 114 small cell lung): 24.7 µM
- TGI (DMS 273 small cell lung): 36.7 µM
- TGI (DU-145 prostate): > 100 µM
- TGI (EKVX NSCLC): > 96.5 µM
- TGI (HCC-2998 colon): > 100 µM
- TGI (HCT-116 colon): 56.2 µM
- TGI (HCT-15 colon): 59.4 µM
- TGI (HL-60(TB) leukemia): 7.65 µM
- TGI (HOP-18 NSCLC): 23.3 µM
- TGI (HOP-62 NSCLC): > 100 µM
- TGI (HOP-92 NSCLC): 13.8 µM
- TGI (HS 578T breast): 51.9 µM
- TGI (HT29 colon): 83.7 µM
- TGI (IGROV1 ovarian): 38.5 µM
- TGI (K-562 leukemia): 41.6 µM
- TGI (KM12 colon): 51 µM
- TGI (KM20L2 colon): > 100 µM
- TGI (LOX IMVI melanoma): 21.1 µM
- TGI (LXFL 529 NSCLC): 16.5 µM
- TGI (M14 melanoma): 49.2 µM
- TGI (M19-MEL melanoma): > 56.4 µM
- TGI (MALME-3M melanoma): > 87.6 µM
- TGI (MCF7 breast): > 90.7 µM
- TGI (MDA-MB-231 breast): 47.5 µM
- TGI (MDA-MB-435): > 100 µM
- TGI (MDA-N): > 100 µM
- TGI (MOLT-4 leukemia): 47.6 µM
- TGI (NCI-H226 lung): 42.1 µM
- TGI (NCI-H23 lung): 55.7 µM
- TGI (NCI-H460 lung): 60.2 µM
- TGI (NCI-H522 lung): 16.8 µM
- TGI (NCI/ADR-RES ovarian): > 100 µM
- TGI (OVCAR-3 ovarian): 50.6 µM
- TGI (OVCAR-4 ovarian): 64.3 µM
- TGI (OVCAR-5 ovarian): > 100 µM
- TGI (OVCAR-8 ovarian): 77.1 µM
- TGI (PC-3 prostate): 27.4 µM
- TGI (RPMI-8226 leukemia): 51.2 µM
- TGI (RXF 393 renal): 55.2 µM
- TGI (RXF-631 renal): > 100 µM
- TGI (SF-268 CNS): 45.9 µM
- TGI (SF-295 CNS): 87 µM
- TGI (SF-539 CNS): 44.9 µM
- TGI (SK-MEL-2 melanoma): 42.3 µM
- TGI (SK-MEL-28 melanoma): 69 µM
- TGI (SK-MEL-5 melanoma): 58.6 µM
- TGI (SK-OV-3 ovarian): > 100 µM
- TGI (SN12C renal): 50.6 µM
- TGI (SNB-19 CNS): > 84.5 µM
- TGI (SNB-75 CNS): 84 µM
- TGI (SNB-78 CNS): 51.4 µM
- TGI (SR leukemia): 57.3 µM
- TGI (SW-620 colon): 67.7 µM
- TGI (T-47D breast): 49 µM
- TGI (TK-10 renal): > 85.1 µM
- TGI (U251 CNS): 35.9 µM
- TGI (UACC-257 melanoma): 71.1 µM
- TGI (UACC-62 melanoma): 43.5 µM
- TGI (UO-31 renal): 51.1 µM
- TGI (XF 498 CNS): 42.6 µM
